Results published in patent publication US12312324B2, “Fluorine-containing substituted benzothiophene compound, and pharmaceutical composition and application thereof” (Shanghai Institute of Materia Medica, Chinese Academy of …, priority 2019, dated 2025).
“Also recorded” adds a separate entry of the source.

Experiments:
[1] = target: human-derived interferon gene stimulating protein (Homo sapiens, UniProt Q86WV6, G230A/H232R/R293Q/R71H); assay: THP1-Blue-ISG reporter cell screening for activation of interferon gene stimulating protein and promotion of IFN-β expression; conditions: 10 μM, THP1-Blue-ISG cells; for Fold change (ratio relative to the control experiment), First experiment / Fold change (ratio relative to the control experiment), Second experiment / Fold change (ratio relative to the control experiment), Average value: 24 hours, OD650; for Fold change (ratio relative to the control experiment), Average value: average of two experiments
[2] = Pharmacokinetic properties in rats; assay type: in vivo
[3] = rat, plasma, Intravenous (1 mg/kg)

Chain of human-derived interferon gene stimulating protein (Q86WV6 whole entry R71H/G230A/H232R/R293Q): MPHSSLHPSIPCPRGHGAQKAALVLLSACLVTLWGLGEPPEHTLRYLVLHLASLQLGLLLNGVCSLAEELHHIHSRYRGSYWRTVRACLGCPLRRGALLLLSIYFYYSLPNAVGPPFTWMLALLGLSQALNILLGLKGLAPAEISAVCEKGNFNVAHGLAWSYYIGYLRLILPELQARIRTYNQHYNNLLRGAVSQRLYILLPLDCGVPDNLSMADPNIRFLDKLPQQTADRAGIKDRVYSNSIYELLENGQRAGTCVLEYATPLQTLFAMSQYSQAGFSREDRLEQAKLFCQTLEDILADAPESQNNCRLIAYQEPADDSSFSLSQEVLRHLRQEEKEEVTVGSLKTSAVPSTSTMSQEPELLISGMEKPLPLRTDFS

| Structure (SMILES) | Judgement [1] | Fold change (ratio relative to the control experiment), First experiment [1] | Fold change (ratio relative to the control experiment), Second experiment [1] | Fold change (ratio relative to the control experiment), Average value [1] | also measured |
| --- | --- | --- | --- | --- | --- |
| COc1cc2sc(C(F)(F)CCC(=O)O)cc2cc1Br [Compound S28] | effective (when the Fold change≥2, it is effective) | 23.75 | 33.73 | 28.74 |  |
| COc1cc2sc(C(F)(F)CCC(=O)O)cc2c(F)c1OC [Compound S19] | effective (when the Fold change≥2, it is effective) | 25.73 | 31.81 | 28.77 |  |
| O=C(O)CCC(F)(F)c1cc2cc3c(cc2s1)OCO3 [Compound S26] | effective (when the Fold change≥2, it is effective) | 16.24 | 25.03 | 20.62 |  |
| CO/C1=C(\OC)C/C(F)=c2/cc(C(F)(F)CCC(=O)N(O)C(C)C)s/c2=C/C1 [Compound S21] | effective (when the Fold change≥2, it is effective) | 27.51 | 32.63 | 30.07 |  |
| C=Cc1cc2cc(C(F)(F)CCC(=O)O)sc2cc1OC [Compound S29] | effective (when the Fold change≥2, it is effective) | 25.26 | 34.05 | 29.66 |  |
| COc1cc2cc(C(F)(F)CCC(=O)OC(C)C)sc2cc1OC [Compound S3] | effective (when the Fold change≥2, it is effective) | 24.31 | 33.69 | 29.00 |  |
| COc1cc2cc(C(F)(F)CCC(=O)N(O)Cc3ccccc3)sc2cc1OC [Compound S11] | effective (when the Fold change≥2, it is effective) | 20.44 | 30.93 | 25.69 |  |
| COc1cc2cc(C(F)(F)CCC(=O)N(O)C(F)F)sc2cc1OC [Compound S7] | effective (when the Fold change≥2, it is effective) | 23.95 | 29.94 | 26.95 |  |
| COc1cc2cc(C(F)(F)CCC(=O)N(O)C(F)(F)c3ccccc3)sc2cc1OC [Compound S12] | effective (when the Fold change≥2, it is effective) | 22.38 | 31.54 | 26.96 |  |
| COc1cc2cc(C(F)(F)CCC(=O)N(C)O)sc2cc1OC [Compound S6] | effective (when the Fold change≥2, it is effective) | 15.82 | 26.22 | 21.02 |  |
| COc1cc2cc(C(F)(F)CCC(=O)NOc3ccccc3)sc2cc1OC [Compound S18] | effective (when the Fold change≥2, it is effective) | 17.62 | 28.34 | 22.98 |  |
| COC1=C(OC)CC=c2cc(C(F)CCCC(=O)N(O)C(C)C)sc2=C1 (stereo not shown) [Compound S24] | effective (when the Fold change≥2, it is effective) | 15.53 | 24.54 | 20.04 |  |
| COc1cc2cc(C(F)(F)CCC(=O)O)sc2cc1OC [Compound S2] | effective (when the Fold change≥2, it is effective) | 23.95 | 25.94 | 24.95 | plasma exposure (AUC) of intravenous injection relative to that of 1a ([2]; intravenous injection, versus compound 1a): about 4.4 times; pharmacokinetic properties (T1/2, Cmax, AUC, MRT) compared with compound 1a (in words) ([2]; oral or intravenous, versus compound 1a): significantly superior; also recorded: significantly better; AUC [2, 3]: 7180 ng·h/mL; MRT [2, 3]: 51.2 min; clearance [2, 3]: 2.33 mL/min/kg; half-life [2, 3]: 40.1 min; AUC ([2]; rat, plasma, Oral (3 mg/kg)): 5820 ng·h/mL; Cmax ([2]; rat, plasma, Oral (3 mg/kg)): 6910 ng/mL; MRT ([2]; rat, plasma, Oral (3 mg/kg)): 69 min; half-life ([2]; rat, plasma, Oral (3 mg/kg)): 44.4 min |
| COc1cc2cc(C(F)(F)CCC(=O)N(O)C(C)C)sc2cc1OC [Compound S10] | effective (when the Fold change≥2, it is effective) | 25.41 | 34.36 | 29.89 |  |
| COc1cc2cc(C(F)(F)CCC(=O)N(O)C3CC3)sc2cc1OC [Compound S15] | effective (when the Fold change≥2, it is effective) | 26.23 | 35.12 | 30.68 |  |
